One may read the kinetic solubility as solubility judged after dilution from a stock solution rather than from solid.

Each structure is given as a SMILES string. In brackets after ≈: the same amount, converted by molar mass.

The conditions of this data set: buffer; pH 7.4; 200.0 µM.
In turn, `O=C1/C(=C/c2ccccn2)SC(=S)N1CCc1ccccc1` gave a solubility (kinetic) of 0.4 µg/mL (≈ 1.23 µM).
In turn, `C=CCNc1nnc(Sc2ncccc2[N+](=O)[O-])s1` returned a kinetic solubility of over 44.3 µg/mL.
With `Cc1nc(N2CCOCC2)nc(Oc2ccccc2F)c1[N+](=O)[O-]`, the kinetic solubility is 1.5 µg/mL (≈ 4.49 µM).
Then `CCSc1ccc(C(=O)NCC(=O)O)cc1`, with over 35.9 µg/mL; and `CC1COc2ccccc2N1C(=O)c1ccccc1Cl` (centres undefined), with over 43.2 µg/mL.
Then `O=C(Cc1ccc([N+](=O)[O-])cc1)c1ccc(O)cc1O`, with over 41 µg/mL.
For `CCC(C)C(NC(N)=O)C(=O)NC1CCC(C)CC1` (centres undefined) the value was 34.2 µg/mL (≈ 127 µM); for `CNC(=S)NNC(=O)Cc1ccc(OC)cc1`, over 38 µg/mL; for `O=C(OCC(=O)N1CCc2ccccc2C1)c1ccc(O)cc1`, 4.5 µg/mL (≈ 14.5 µM).
`CCN(CC)C(=O)Cn1cc(C(=O)C2CC2)c2ccccc21` returned a kinetic solubility of over 44.8 µg/mL.
On to `Cc1ccc(OCC(O)CNC(C)c2ccccc2)cc1C.Cl` (centres undefined), for which the solubility (kinetic) was found to be 45.9 µg/mL.
In turn, `Cc1c(C(=O)Nc2c(C)n(C)n(-c3ccccc3)c2=O)oc2ccc(Cl)cc12` showed a kinetic solubility of over 59.4 µg/mL.
`O=C(N[C@@H](Cc1c[nH]c2ccccc12)C(=O)O)c1ccccc1Cl` gave a solubility (kinetic) of 45.8 µg/mL (≈ 134 µM).
Then `O=C(O)c1ccccc1NS(=O)(=O)c1ccc2ccccc2c1`, with over 49.1 µg/mL.
As for `O=C(c1cccc(Cl)c1)N1CCN(Cc2ccccc2)CC1`, the solubility (kinetic) is 47.1 µg/mL (≈ 150 µM).
With `O=C(/C=C/c1ccc(O)c([N+](=O)[O-])c1)c1ccc2ccccc2c1`, the solubility (kinetic) was 1.8 µg/mL (≈ 5.64 µM).
Take `CSc1ncccc1C(=O)OCC(=O)C(C)(C)C`: the kinetic solubility is 39.6 µg/mL (≈ 148 µM).
Regarding `CCn1cc(C(=O)NCc2ccc(OC)cc2)c(=O)c2ccc(C)nc21`, the solubility (kinetic) stood at 0.4 µg/mL (≈ 1.14 µM).
Then `Cc1onc(-c2ccccc2)c1CNC(=O)Nc1cccc(Cl)c1`, with 1.8 µg/mL (≈ 5.27 µM); and `Cc1cc(N(C)C)nc(Nc2ccccc2)n1`, with over 34.2 µg/mL.
Compound `Cc1cc(=O)n(-c2ccc(Cl)cc2)c(=O)[nH]1` had a kinetic solubility of over 35.5 µg/mL.
For `CCOC(=O)C(c1ccccc1)C(Nc1ccc(F)cc1)c1ccccn1` (centres undefined) the value was 11.9 µg/mL (≈ 32.7 µM); for `CCN(CC(=O)NCc1ccc(Cl)cc1)C(=O)/C=C/c1ccccc1`, 2.8 µg/mL (≈ 7.85 µM); for `C=CCn1c(=NC(=O)c2cccs2)sc2cccc(OC)c21`, under 0.4 µg/mL.
Then `CN(c1ccccc1)S(=O)(=O)c1ccc(C(=O)N2CCN(c3ccccc3F)CC2)cc1`, with 3.6 µg/mL (≈ 7.94 µM); and `CN(C)C(=O)Oc1ccc(Br)c2ccccc12`, with 35 µg/mL (≈ 119 µM).
For `O=C(NCCCNC(=O)c1cc(Cl)ccc1Cl)c1ccco1` the value was 44.3 µg/mL (≈ 130 µM).
Take `CN(Cc1ccco1)S(=O)(=O)c1csc(C(N)=O)c1`: the kinetic solubility was determined as 44.7 µg/mL (≈ 149 µM).
`O=C(O)c1ccc(N=C2NC(=O)C(CO)(CO)S2)cc1` showed a kinetic solubility of over 44.4 µg/mL.
For `CC(=O)c1c(COC(=O)c2ccc(C)cc2)nc2ccccc2[n+]1[O-]` the value was 2.7 µg/mL (≈ 8.03 µM).
For `COc1ccc(NC(=O)C(c2ccc(Cl)cc2)C(C)C)cn1` (centres undefined) the value was 13.5 µg/mL (≈ 42.3 µM).
`COC(=O)c1ccc(N)nc1`: the kinetic solubility was over 22.8 µg/mL.
In the case of `O=C(NCCO)c1cc([N+](=O)[O-])cc2c1C=Cc1ccccc1O2`, the kinetic solubility came out at 35.3 µg/mL (≈ 108 µM).
Then `Cc1cccc(C)c1NC(=O)C1CCN(C(=O)c2cccs2)CC1`, with 39.1 µg/mL (≈ 114 µM); and `COc1cc(OC)cc(C(=O)NC(=S)N2CCCCCC2)c1`, with 43.6 µg/mL (≈ 135 µM).
On to `S=C(Nc1ccc(Br)cc1)N1CCN(c2ccccn2)CC1`, for which the kinetic solubility came to 2.1 µg/mL (≈ 5.57 µM).
For `Cc1ccc(C)c(-n2c(=O)c(C#N)cc3c(=O)n4ccccc4nc32)c1` the value was 6.2 µg/mL (≈ 18.1 µM).
Consider `O=C(COC(=O)c1cc(F)cc(F)c1)NCCCc1ccccc1`, for which the solubility (kinetic) amounted to 3.7 µg/mL (≈ 11.1 µM).
Then `CCOc1ccc(NC(=O)Nc2ccon2)cc1`, with 36.9 µg/mL (≈ 149 µM).
As to `Cc1ccc2nc(Nc3ccccc3)c(C=O)c(=O)n2c1`, the solubility (kinetic) came to 1.5 µg/mL (≈ 5.37 µM).
Then `COc1ccc(C(=O)NCCSCc2ccc(Cl)cc2)cc1OC`, with 3.9 µg/mL (≈ 10.7 µM).
Then `CC(C)(C)c1cc(NC(=O)Nc2ccccc2OC(F)(F)F)no1`, with under 0.2 µg/mL.
In turn, `COc1ccc(CNC(=O)c2cccnc2)cc1` yielded a kinetic solubility of over 36.3 µg/mL.
For `O=C(CN1CCCC1)OCCCC1CCCCC1` the value was 17.9 µg/mL (≈ 70.6 µM); for `COc1ccc(C2SCC(=O)N2c2ccc(C)cc2)cc1` (centres undefined), 37.5 µg/mL (≈ 125 µM).
For `O=C(NCC1CCCO1)C1CC(=O)N(c2cccc(Cl)c2)C1` (centres undefined), the kinetic solubility came to 46.6 µg/mL (≈ 144 µM).
`Cc1cc(C)c(C(=O)COC(=O)CN2C(=O)NC3(CCCC3)C2=O)cc1C` had a solubility (kinetic) of over 55.9 µg/mL.
For `Cc1ccc2nc(-c3ccccc3)c(CC(=O)O)c(C(=O)O)c2c1` the value was over 48.2 µg/mL; for `COc1ccc(CNc2ccccn2)c(O)c1`, over 34.5 µg/mL.
Compound `CC(CN)(NS(=O)(=O)c1ccccc1)c1ccccc1` (centres undefined) yielded a solubility (kinetic) of over 43.6 µg/mL.
Then `O=C(O)COc1ccc(/C=N/O)cc1Br`, with 41 µg/mL (≈ 150 µM); and `COc1ccc(OC)c(S(=O)(=O)NCCCN2CCOCC2)c1.Cl`, with over 57.1 µg/mL.
Then `COc1ccc(C2CC(C)(c3ccc(OC)cc3)Nc3ccccc3N2)cc1` (centres undefined), with under 0.4 µg/mL; and `Cc1ccccc1Nc1nc(N)nc(CSc2nnc(C)n2C)n1`, with over 51.4 µg/mL; and `CCOC(=O)N1CCc2[nH]c3ccc(C)cc3c2C1`, with 15.9 µg/mL (≈ 61.6 µM).
`Cc1ccc2c(c1)sc1nc(=O)ccn12`: the solubility (kinetic) was over 32.4 µg/mL.
In the case of `Cl.O=C(NCCN1CCCC1)c1ccc(Br)cc1`, the solubility (kinetic) is over 50 µg/mL.
For `O=C(Nc1ccc(O)cc1)/C(=C/c1ccco1)NC(=O)c1ccccc1` the value was over 52.3 µg/mL; for `CC(=O)Nc1nc(C)cs1`, over 23.4 µg/mL.
Then `COc1ccc(/C=C/c2nc(-c3ccccc3)cc(=O)[nH]2)cc1`, with under 0.3 µg/mL; and `O=C(NCCOc1cccc2cccnc12)c1cccs1`, with over 44.8 µg/mL.
With `COC(=O)c1cc(-c2cccc([N+](=O)[O-])c2)c2c(=O)[nH]c(=O)n(C)c2n1`, the solubility (kinetic) is 1.1 µg/mL (≈ 3.09 µM).
Then `S=C(c1c[nH]c2ccccc12)N1CCOCC1`, with over 36.9 µg/mL; and `Cn1c(O)c(/C=C2/C=CC=N2)c(=O)[nH]c1=O`, with over 32.9 µg/mL.
For `CC(=O)Nc1ccc(NC(=O)Nc2ccccc2)cc1` the value was 6.3 µg/mL (≈ 23.4 µM).
The compound `CCCCOC(=O)CSc1nc2ccccc2o1` gave a solubility (kinetic) of 5.4 µg/mL (≈ 20.4 µM).
Then `CC(C)N(Cc1ccccc1)C(=O)COC(=O)c1ccc(S(=O)(=O)N2CCOCC2)cc1`, with 3.1 µg/mL (≈ 6.73 µM); and `CN(C)C(CNC(=O)c1ccccc1C(F)(F)F)c1ccco1` (centres undefined), with over 48.9 µg/mL; and `Cc1cccc(C)c1NC(=O)CN1C(=O)NC(C)(C2CC2)C1=O` (centres undefined), with over 47.3 µg/mL.
Consider `O=C(NC1CCC(O)CC1)c1ccccc1OCc1ccc(F)cc1` (centres undefined), for which the solubility (kinetic) amounted to 46.4 µg/mL (≈ 135 µM).
In turn, `O=C(O)CC(NC(=O)Cc1ccccc1)c1ccccc1` (centres undefined) showed a kinetic solubility of 27.4 µg/mL (≈ 96.7 µM).
Then `Cc1oc(C)c(S(=O)(=O)NCc2cccs2)c1C(=O)O`, with over 47.3 µg/mL; and `COC(=O)c1cccc(NC(=O)c2ccc[n+]([O-])c2)c1`, with over 40.8 µg/mL; and `CS(=O)(=O)N1CCN(c2nc3ccc(Cl)cc3s2)CC1`, with under 0.2 µg/mL.
Regarding `COc1cc(C(=O)O/N=C(\N)c2ccccn2)cc(OC)c1OC`, the kinetic solubility was over 49.7 µg/mL.
On to `Cc1ccc(-c2cc(N)nc(-c3ccccc3)c2)cc1`, for which the solubility (kinetic) is under 0.3 µg/mL.
Then `COc1ccc(NC(=O)c2cc(-c3ccco3)on2)c(OC)c1`, with 0.8 µg/mL (≈ 2.55 µM); and `NS(=O)(=O)c1cccc(NC(=O)c2cccs2)c1`, with over 42.3 µg/mL; and `Cc1ccc(-n2c3nc(=O)n(C)c(=O)c-3cc3ccccc32)cc1`, with 12.3 µg/mL (≈ 38.8 µM).
Compound `COC(=O)c1ccccc1NC(=O)CCn1c(=O)oc2ccccc21` yielded a kinetic solubility of over 51.1 µg/mL.
Then `O=C(CNC(=O)c1ccc(OC(F)F)cc1)NCC1CCCO1` (centres undefined), with over 49.2 µg/mL; and `Cc1cc(NC(=O)CSc2ncnc3sccc23)no1`, with 19.3 µg/mL (≈ 63 µM); and `O=C1CN(C(=O)COc2ccc(Br)cc2)c2ccccc2N1`, with 10.3 µg/mL (≈ 28.5 µM).
For the compound `COc1ccc(C(=O)NCCCNC(=O)c2cnccn2)cc1`, the kinetic solubility was 42.8 µg/mL (≈ 136 µM).
Compound `CCOc1ccc(S(=O)(=O)/N=C(/Nc2ccc(S(N)(=O)=O)cc2)c2ccccc2)cc1` displayed a kinetic solubility of 2.2 µg/mL (≈ 4.79 µM).
Then `N/C(=N\OC(=O)c1cccc(C(F)(F)F)c1)c1cnccn1`, with 2.4 µg/mL (≈ 7.74 µM); and `CSc1ccc(CN(C)C(C)C(=O)NCC2CCCCC2)cc1` (centres undefined), with 28.3 µg/mL (≈ 84.6 µM).
For `COc1ccccc1N1CCN(Cc2cc3c(cc2O)OCO3)CC1` the value was over 51.4 µg/mL; for `CC(=O)c1ccccc1NC(=O)CCN1C(=O)C2CCCCC2C1=O` (centres undefined), over 51.4 µg/mL; for `Br.CNc1nc2ccccc2n1CC(=O)c1ccccc1`, over 51.9 µg/mL.
The compound `Cc1cc(NC(=O)c2ccc([N+](=O)[O-])cc2)no1` displayed a solubility (kinetic) of under 0.2 µg/mL.
Then `O=C(COc1ccc(F)cc1Br)NCC1(N2CCCCC2)CCCCC1`, with 55 µg/mL (≈ 129 µM).
Then `CNc1nc(-c2c(C)[nH]c3ccc(OC)cc23)cs1`, with 31.8 µg/mL (≈ 116 µM); and `Cc1ccc(NC(=O)Cc2c[nH]c3ccccc23)cc1`, with 3.2 µg/mL (≈ 12.1 µM); and `COc1cc2ccccc2cc1C(=O)Nc1cc(C)ccn1`, with 4.2 µg/mL (≈ 14.4 µM).
For `COc1ccc(CNc2nc3ccccc3n2C(C)C)c(O)c1` the value was 25.7 µg/mL (≈ 82.5 µM); for `COc1ccc(Br)cc1/C=C(\C(=O)O)c1ccc(S(=O)(=O)N2CCCC2)s1`, over 70.9 µg/mL; for `Cn1cc(/C=N/NC(N)=S)c2ccccc21`, over 34.8 µg/mL.
`CN(C)CCCNC(=S)Nc1ccc(Oc2ccccc2)cc1` gave a kinetic solubility of 43.1 µg/mL (≈ 131 µM).
Then `Cc1c(N)cccc1-n1cccc1`, with 20 µg/mL (≈ 116 µM); and `CCOC(=O)CNC(=O)CNC(=O)c1ccc(OC(C)C)cc1`, with over 48.4 µg/mL; and `O=C(O)c1ccc(CSc2nc3ccccc3[nH]2)cc1`, with 39.2 µg/mL (≈ 138 µM).
`NC(=O)c1cc(S(=O)(=O)Nc2cccc(Cl)c2)cs1` returned a kinetic solubility of over 47.5 µg/mL.
Then `CC(=O)OCC(=O)Nc1ccccc1C`, with over 31.1 µg/mL.
